The source of these data is patent US20210032674A1, “METHOD FOR DETERMINING MICROORGANISM CONCENTRATION” (priority 2018, published 2021).

This assay relates to clinical isolate of Klebsiella pneumoniae. The assay can be described thus: Antibiotic susceptibility test (AST), MIC calling by automated microscopy imaging of microbial biomass in a 336-well AST-disc. Format: cell-based. The conditions noted are these: K. pneumoniae recovered from spiked positive blood culture flask, adjusted to 5x10^5 CFU/ml in CAMBH, 35° C., up to 5.5 hours total AST time; for MIC: Klebsiella pneumoniae, 5.5 h. As for the experimental part: Clinical isolates grown on agar plate were individually suspended in PBS and adjusted to 0.5 McFarland. A 1:100 dilution of this was added together with 9 ml of blood from a healthy donor to a blood culture flask (BD Bactec Plus Aerob) and incubated in a blood culture cabinet overnight. In the morning, after the BCF had turned positive a 500 μl aliquot of the positive BCF were used for the subsequent analysis.
The value of the concentration determination was compared to a pre-determined standard curve and the concentration of microorganisms in the recovered suspension was automatically adjusted to the desired concentration (5×10^5 CFU/ml). For this experiment an aliquot of the concentration adjusted bacteria were plated on an agar plate to determine viable cell count to provide a control measure for the process.
The concentration adjusted sample in CAMBH was added using an automated pipette via central access ports to a 336-well AST-disc pre-filled with dried antibiotics in various concentrations.
Each well contain 20 μl of sample and is incubated at 35° C. An initial reading was taken after 30 minutes (reading 0). Subsequent readings (readings 1-6) were taken every hour up to 5.5 hours total AST time by imaging by automated microscopy.
MIC antibiotic concentrations (measured in mg/I) were determined for a range of antibiotics. Each antibiotic were present in triplicates in the AST-consumable in this experiment.

In brackets after ≈: the same amount, converted by molar mass.

Consider `C[C@@H](O)[C@H]1C(=O)N2C(C(=O)O)=C(S[C@@H]3CN[C@H](C(=O)N(C)C)C3)[C@H](C)[C@H]12` [Meropenem], for which the MIC – broadly, the lowest concentration found to suppress growth – (replicate #1) is no more than 0.0625 µg/mL; the MIC (replicate #2) was no more than 0.0625 µg/mL; the MIC (replicate #3) was no more than 0.0625 µg/mL.
In the case of ceftazidime-avibactam, the MIC values reads like this: (replicate #1) 16 mg/I; (replicate #2) 32 mg/I; (replicate #3) 32 mg/I.
Take `C[C@H]1COc2c(N3CCN(C)CC3)c(F)cc3c(=O)c(C(=O)O)cn1c23` [Levofloxacin]: the MIC came out at 0.5 µg/mL (≈ 1.38 µM) (replicate #1), 0.5 µg/mL (≈ 1.38 µM) (replicate #2) and 0.5 µg/mL (≈ 1.38 µM) (replicate #3).
For `NC[C@H]1O[C@H](O[C@H]2[C@H](O)[C@@H](O[C@H]3O[C@H](CO)[C@@H](O)[C@H](N)[C@H]3O)[C@H](N)C[C@@H]2N)[C@H](N)C[C@@H]1O` [Tobramycin], the MIC by setting is: (replicate #1) 2 µg/mL (≈ 4.28 µM); (replicate #2) 2 µg/mL (≈ 4.28 µM); (replicate #3) 2 µg/mL (≈ 4.28 µM).
On to Trimethoprim/Sulfamethoxasole, for which the MIC values is greater than 16 mg/I (replicate #1), greater than 16 mg/I (replicate #2) and greater than 16 mg/I (replicate #3).
With Gentamicin, the MIC values reads like this: (replicate #1) 0.5 mg/I; (replicate #2) 0.5 mg/I; (replicate #3) 0.5 mg/I.
On to `NCC[C@H](O)C(=O)N[C@@H]1C[C@H](N)[C@@H](O[C@H]2O[C@H](CN)[C@@H](O)[C@H](O)[C@H]2O)[C@H](O)[C@H]1O[C@H]1O[C@H](CO)[C@@H](O)[C@H](N)[C@H]1O` [Amikacin], for which the MIC stood at 1 µg/mL (≈ 1.71 µM) (replicate #1), 2 µg/mL (≈ 3.42 µM) (replicate #2) and 1 µg/mL (≈ 1.71 µM) (replicate #3).
Consider `C[C@@H](O)[C@H]1C(=O)N2C(C(=O)O)=C(SCCN=CN)C[C@H]12` [Imipinem], for which the MIC values result is, setting by setting: (replicate #1) “<=0.5 mg/I”; (replicate #2) “<=0.5 mg/I”; (replicate #3) “<=0.5 mg/I”.
As for Amoxicillin/clavulanic acid, the MIC values reads like this: (replicate #1) 8 mg/I; (replicate #2) 16 mg/I; (replicate #3) 16 mg/I.
With `CO/N=C(\C(=O)N[C@@H]1C(=O)N2C(C(=O)O)=C(CSc3nc(=O)c(=O)[nH]n3C)CS[C@H]12)c1csc(N)n1` [Ceftriaxone], the MIC is greater than 8 µg/mL (replicate #1), greater than 8 µg/mL (replicate #2) and greater than 8 µg/mL (replicate #3).
Regarding Colistin, the MIC values is, setting by setting: (replicate #1) 0.5 mg/I; (replicate #2) 1 mg/I; (replicate #3) 1 mg/I.
Turning to Ceftolozane-tazobactam, the MIC values was 0.25 mg/I (replicate #1), 0.25 mg/I (replicate #2) and 0.25 mg/I (replicate #3).
Regarding `CN(C)c1cc(NC(=O)CNC(C)(C)C)c(O)c2c1C[C@H]1C[C@H]3[C@H](N(C)C)C(O)=C(C(N)=O)C(=O)[C@@]3(O)C(O)=C1C2=O` [Tigecyclin], the MIC values runs as follows: (replicate #1) 0.5 mg/I; (replicate #2) 0.5 mg/I; (replicate #3) 0.5 mg/I.
`CC(C)(O/N=C(\C(=O)N[C@@H]1C(=O)N2C(C(=O)[O-])=C(C[n+]3ccccc3)CS[C@H]12)c1csc(N)n1)C(=O)O` [Ceftazidime] displayed an MIC (replicate #1) of no more than 0.125 µg/mL, an MIC (replicate #2) of no more than 0.125 µg/mL and an MIC (replicate #3) of no more than 0.125 µg/mL.
Consider `CO[C@@]1(NC(=O)Cc2cccs2)C(=O)N2C(C(=O)O)=C(COC(N)=O)CS[C@@H]21` [Cefoxitine], for which the lowest concentration to inhibit growth (replicate #1) (MIC) was 2 µg/mL (≈ 4.68 µM), the MIC (replicate #2) came to 4 µg/mL (≈ 9.36 µM) and the MIC (replicate #3) was found to be 2 µg/mL (≈ 4.68 µM).
Regarding `C[C@@H](O)[C@H]1C(=O)N2C(C(=O)O)=C(S[C@@H]3CN[C@H](C(=O)Nc4cccc(C(=O)O)c4)C3)[C@H](C)[C@H]12` [Ertapenem], the MIC is no more than 0.0156 µg/mL (replicate #1), 0.0312 µg/mL (≈ 0.0657 µM) (replicate #2) and no more than 0.0156 µg/mL (replicate #3).
Piperacillin/Tazobactam had an MIC values (replicate #1) of 4 mg/I, an MIC values (replicate #2) of 4 mg/I and an MIC values (replicate #3) of 4 mg/I.
Turning to `CO/N=C(\C(=O)N[C@@H]1C(=O)N2C(C(=O)O)=C(COC(C)=O)CS[C@H]12)c1csc(N)n1` [Cefotaxime], the MIC is greater than 8 µg/mL (replicate #1), greater than 8 µg/mL (replicate #2) and greater than 8 µg/mL (replicate #3).
